Common to all, as to assay type: functional
The subject of test [1] is Pseudomonas aeruginosa. Description: Antibacterial activity against Pseudomonas aeruginosa MTCC 2453 at 100 ug/ml by cup-plate method. As to conditions: read-out: DIZ.
In test [2] the test system is Bacillus subtilis. Description: Antibacterial activity against Bacillus subtilis MTCC 121 at 300 ug/ml by cup plate method. As to conditions: read-out: DIZ.
Test [3] relates to Pseudomonas aeruginosa. Description: Antibacterial activity against Pseudomonas aeruginosa MTCC 2453 at 50 ug/ml by cup-plate method. The settings on record: read-out: DIZ.
The test system of test [4] is Pseudomonas aeruginosa. Description: Antibacterial activity against Pseudomonas aeruginosa MTCC 2453 at 200 ug/ml by cup-plate method. The settings on record: read-out: DIZ.
Test [5] deals with Staphylococcus aureus. Description: Antibacterial activity against Staphylococcus aureus MTCC 96 at 200 ug/ml by cup-plate method. The settings on record: read-out: DIZ.
In test [6] the test system is Candida albicans. Description: Antifungal activity against Candida albicans MTCC 227 at 200 ug/ml by cup-plate method. The settings on record: for zone of inhibition at 200 µg/mL: read-out: DIZ.
The subject of test [7] is Staphylococcus aureus. Description: Antibacterial activity against Staphylococcus aureus MTCC 96 at 300 ug/ml by cup-plate method. The settings on record: read-out: DIZ.
In test [8] the test system is Bacillus subtilis. Description: Antibacterial activity against Bacillus subtilis MTCC 121 at 100 ug/ml by cup plate method. The settings on record: read-out: DIZ.
For test [9], the system named is Bacillus subtilis. Description: Antibacterial activity against Bacillus subtilis MTCC 121 at 200 ug/ml by cup plate method. As to conditions: read-out: DIZ.
Test [10] relates to Candida albicans. Description: Antifungal activity against Candida albicans MTCC 227 at 300 ug/ml by cup-plate method. The settings on record: for zone of inhibition at 300 µg/mL: read-out: DIZ.
The test system of test [11] is Escherichia coli. Description: Antibacterial activity against Escherichia coli MTCC 739 at 50 ug/ml by cup-plate method. As to conditions: read-out: DIZ.
The subject of test [12] is Bacillus subtilis. Description: Antibacterial activity against Bacillus subtilis MTCC 121 at 50 ug/ml by cup plate method. As to conditions: read-out: DIZ.
Test [13] deals with Candida albicans. Description: Antifungal activity against Candida albicans MTCC 227 at 50 ug/ml by cup-plate method. As to conditions: for zone of inhibition at 50 µg/mL: read-out: DIZ.
Test [14] has as its system Pseudomonas aeruginosa. Description: Antibacterial activity against Pseudomonas aeruginosa MTCC 2453 at 300 ug/ml by cup-plate method. As to conditions: read-out: DIZ.
Test [15] has as its system Staphylococcus aureus. Description: Antibacterial activity against Staphylococcus aureus MTCC 96 at 50 ug/ml by cup-plate method. The settings on record: read-out: DIZ.
In test [16] the test system is Escherichia coli. Description: Antibacterial activity against Escherichia coli MTCC 739 at 300 ug/ml by cup-plate method. The settings on record: read-out: DIZ.
Test [17] deals with Escherichia coli. Description: Antibacterial activity against Escherichia coli MTCC 739 at 200 ug/ml by cup-plate method. The settings on record: read-out: DIZ.
The test system of test [18] is Escherichia coli. Description: Antibacterial activity against Escherichia coli MTCC 739 at 100 ug/ml by cup-plate method. The settings on record: read-out: DIZ.
Test [19] concerns Candida albicans. Description: Antifungal activity against Candida albicans MTCC 227 at 100 ug/ml by cup-plate method. As to conditions: for zone of inhibition at 100 µg/mL: read-out: DIZ.
Test [20] concerns Staphylococcus aureus. Description: Antibacterial activity against Staphylococcus aureus MTCC 96 at 100 ug/ml by cup-plate method. As to conditions: read-out: DIZ.

The record followed here is ChEMBL document CHEMBL3044740, “Syntheses and evaluation of 2,5-disubstituted 4-thiazolidinone analogues as antimicrobial agents” (2012).

The source made the active and inactive calls. The calls are words filed in the database; no cut-off is given here.

On to `O=C1N/C(=N\c2ccc([N+](=O)[O-])cc2)S/C1=C\c1ccccc1[N+](=O)[O-]`, for which the zone of inhibition at 100 µg/mL in test [1] was determined as 11 mm; in [8] it was 12 mm; in test [18], 11 mm; in test [20] it was 15 mm. Also, the zone of inhibition at 300 µg/mL in test [2] came to 15 mm; in test [7], 17 mm; in test [14], 12 mm; in [16], 12 mm. In addition, the zone of inhibition at 50 µg/mL came to 10 mm in test [3], 11 mm in [11], 11 mm in test [12] and 11 mm in [15]. The zone of inhibition at 200 µg/mL was 12 mm in test [4], 16 mm in test [5], 13 mm in test [9] and 12 mm in test [17]. Also, the “diameter of the inhibition zone (DIZ)” value in test [6], in test [10], in test [13] and in [19] was “inactive” in each case.

For the compound `O=C1N/C(=N\c2ccc([N+](=O)[O-])cc2)S/C1=C\c1cccc([N+](=O)[O-])c1`, the zone of inhibition at 100 µg/mL in test [1] was 11 mm; in test [8] it was 12 mm; in test [18], 11 mm; in test [20], 15 mm. Moreover, the zone of inhibition at 300 µg/mL in test [2] came to 15 mm; in test [7], 17 mm; in [14], 12 mm; in test [16], 12 mm. Further, the zone of inhibition at 50 µg/mL in test [3] amounted to 10 mm; in test [11] it was 11 mm; in test [12], 11 mm; in test [15], 11 mm. The zone of inhibition at 200 µg/mL in [4] was 12 mm; in test [5] it was 16 mm; in test [9] it was 13 mm; in test [17], 12 mm. The “diameter of the inhibition zone (DIZ)” value in [6], in [10], in test [13] and in test [19] was “inactive” each time.

In the case of `O=C1N/C(=N\c2ccc([N+](=O)[O-])cc2)S/C1=C\c1ccc(O)cc1`, the zone of inhibition at 100 µg/mL in test [1] came out at 11 mm; in [8] it was 12 mm; in test [18], 12 mm; in test [20] it was 12 mm. Further, the zone of inhibition at 300 µg/mL in test [2] came to 15 mm; in test [7], 15 mm; in test [14] it was 12 mm; in test [16], 15 mm. In addition, the zone of inhibition at 50 µg/mL in [3] worked out at 10 mm; in test [11], 11 mm; in [12], 11 mm; in [15] it was 11 mm. The zone of inhibition at 200 µg/mL is 11 mm in test [4], 13 mm in test [5], 14 mm in test [9] and 13 mm in test [17]. In addition, the “diameter of the inhibition zone (DIZ)” value in [6], in [10], in [13] and in [19] was “inactive” in each case.

For `O=C1N/C(=N\c2ccc([N+](=O)[O-])cc2)S/C1=C\c1ccccc1`, the zone of inhibition at 100 µg/mL was 10 mm in test [1], 12 mm in test [8], 12 mm in test [18] and 13 mm in test [20]. For the same compound, the zone of inhibition at 300 µg/mL in test [2] was 15 mm; in [7] it was 16 mm; in test [14], 13 mm; in [16] it was 15 mm. Further, the zone of inhibition at 50 µg/mL in test [3] stood at 10 mm; in test [11], 11 mm; in test [12], 11 mm; in test [15] it was 12 mm. The zone of inhibition at 200 µg/mL in [4] was 11 mm; in [5], 14 mm; in [9] it was 13 mm; in test [17] it was 13 mm. Also, the “diameter of the inhibition zone (DIZ)” value in test [6], in [10], in [13] and in test [19] was “inactive” throughout.

`O=C1N/C(=N\c2ccccc2[N+](=O)[O-])S/C1=C\c1ccccc1[N+](=O)[O-]`: the zone of inhibition at 100 µg/mL in [1] is 10 mm; in [8], 9 mm; in test [18] it was 8 mm; in test [19], 16 mm; in [20] it was 10 mm. Also, the zone of inhibition at 300 µg/mL in test [2] came out at 10 mm; in test [7] it was 14 mm; in test [10], 26 mm; in test [14] it was 13 mm; in test [16], 11 mm. The zone of inhibition at 50 µg/mL in test [3] came to 10 mm; in [11] it was 8 mm; in test [12] it was 9 mm; in test [13], 10 mm; in test [15], 10 mm. Also, the zone of inhibition at 200 µg/mL in [4] stood at 13 mm; in test [5], 13 mm; in [6], 23 mm; in [9], 10 mm; in test [17], 10 mm.

In the case of `O=C(O)c1cn(C2CC2)c2cc(N3CCNCC3)c(F)cc2c1=O` [CIPROFLOXACIN], the zone of inhibition at 100 µg/mL in test [1] was 18 mm; in test [8], 22 mm; in test [18] it was 28 mm; in [20] it was 19 mm. The “diameter of the inhibition zone (DIZ)” value in test [19] is “inactive”.

In the case of `O=C1N/C(=N\c2ccccc2[N+](=O)[O-])S/C1=C\c1ccc(Cl)cc1`, the zone of inhibition at 100 µg/mL in test [1] turned out to be 15 mm; in test [8] it was 14 mm; in test [18], 11 mm; in test [20], 15 mm. Further, the zone of inhibition at 300 µg/mL in test [2] is 16 mm; in test [7] it was 18 mm; in test [14] it was 18 mm; in test [16], 11 mm. The zone of inhibition at 50 µg/mL in [3] is 14 mm; in test [11], 10 mm; in test [12], 13 mm; in test [15] it was 14 mm. Besides, the zone of inhibition at 200 µg/mL in test [4] is 17 mm; in [5], 16 mm; in test [9], 15 mm; in test [17] it was 11 mm. The “diameter of the inhibition zone (DIZ)” value in test [6], in test [10], in test [13] and in test [19] was “inactive” throughout.

Consider `O=C1N/C(=N\c2ccccc2[N+](=O)[O-])S/C1=C\c1ccccc1`, for which the zone of inhibition at 100 µg/mL in test [1] came to 6 mm; in [8] it was 10 mm; in test [18], 8 mm; in [19] it was 11 mm; in test [20], 11 mm. Besides, the zone of inhibition at 300 µg/mL is 13 mm in [2]; 15 mm in [7]; 18 mm in [10]; 10 mm in test [14]; 12 mm in [16]. Also, the zone of inhibition at 50 µg/mL is 6 mm in test [3]; 7 mm in [11]; 8 mm in [12]; 10 mm in test [13]; 10 mm in test [15]. Also, the zone of inhibition at 200 µg/mL in test [4] amounted to 8 mm; in test [5], 12 mm; in test [6] it was 13 mm; in test [9] it was 11 mm; in [17], 10 mm.

As to `OC(Cn1cncn1)(Cn1cncn1)c1ccc(F)cc1F` [FLUCONAZOLE], the zone of inhibition at 100 µg/mL in [19] was found to be 35 mm.
